The values below are quoted from earlier work in patent publication US20040254092A1 (priority 2003, published 2004).

In series [1] the test system is Poliomyelitis virus type I (PVI). The note with it: ozone density 0.13 mg/L, time 30 seconds.
Series [2] relates to SA-H and human-wheel virus type 2.
In series [3] the test system is Mycoplasma, Chlamydia, and other pathogens.
Series [4] relates to Type-B hepatitis surface antigen (HbsAg).

Turning to `O=[O+][O-]` [Ozone, ozone], the Sterilizing efficiency in series [1] is given as 100%; in the series on Coliphage ms2, 98%; in series [2], 99.60%; in the series on HIV, 100%; with Coronaviridae it was 100%; in series [3], 99.85%. Besides, the Sterilizing efficiency in the series on Type-A flu virus is reported as 99%; in series [4], 99.99%.
